{"source": "patent US20080255206A1", "about": "“Rxr Agonists and Antagonists, Alone or in Combination with Ppar Ligands, in the Treatment of Metabolic and Cardiovascular Diseases” (priority 2005, published 2008)", "key": {"skin of mice": {"test_system": "skin of mice", "assay": "Topical administration to the skin of mice (irritation)", "type": "in vivo", "details": "concentrations up to 2.5%"}, "[1]": {"test_system": "myeloperoxidase (MPO) activity", "assay": "Acute inflammation of mouse ears, MPO activity", "type": "in vivo, C57BL/6 mice", "details": "4 d", "method": "[…] mice of the C57BL/6 strain are used. Inflammation is induced on mouse ears with either AtRA, 9-cis RA or TPA by topical application. Inflammation is measured objectively by determination of the activity of myeloperoxidase (MPO) being directly correlated to the infiltration of polymorphonuclear white blood cells and by the determination of mRNA expression of c-jun, a protein implicated in the AP-1 transduction pathway according to known methods, see e.g. P. L. Stanley et al., Skin Pharmacol. 4, 262-271 (1991) (MPO assay), N. Basset-Sequin et al., J. Invest. Dermatol. 94, 418-422 (1990), F. J. Rauscher et al., Cell 52, 471-480 […], P. Sassone-Corn et al., Nature 326, 507-510 (1987), and M. Pfahl, Endocr. Rev. 14, 651-658, 1993, which are incorporated by reference regarding the experimental method.\nIn the “acute inflammation” test, mice are treated topically (epicutaneously), orally or intraperitoneally, daily for 4 days. In the “semi chronic inflammation” test, mice are treated topically according to the schedules given below. For each experiment, a group of at least 4 mice of both sexes are used in the defined condition, regarding placebo, vehicle control, compound, topical formulation, oral formulation, dosage and concentration. The topical vehicle consists of ethanol/PEG 400/water (3:1:1).\nThe anti-inflammatory effect of topical RXR antagonist compound 15 is tested by determination of myeloperoxidase activity in % of vehicle treated controls. For induction of inflammation 9-cis RA or TPA are applied topically to the skin, daily for 4 days. The RXR antagonist compound 15 (see Table 1) is administered topically one hour after the application of the inflammation inducing agent. The mice are sacrified 24 hours after the last treatment."}, "MMP-1 mRNA": {"test_system": "MMP-1 mRNA", "assay": "MMP-1 mRNA in synovial fibroblasts (real time PCR)", "type": "cell-based, human", "method": "(§1) Furthermore, it is determined whether this is accompanied by a modulation in the accumulation of the mRNA encoding catabolic enzyme matrix metalloproteinase-1 (MMP-1), responsible for degradation of human cartilage and consequently joint destruction in man. Adherent synovial fluid cells taken from a patient with RA are used after 5 passages in an in vitro assay for cartilage destruction. The cells incubated in flasks coated with 0.1% (0.1 g/100 ml) human cartilage powder are fixed using Matrigel® (BD Biosciences, Becton, Dickinson & Co., Boston, Mass., USA).\nThis is conducted in the presence or absence of IL-1β (100 pg/ml)."}, "synovial fibroblasts": {"test_system": "synovial fibroblasts", "assay": "In vitro cartilage degradation by synovial fibroblasts (sGAG release)", "type": "cell-based, human", "details": "for sGAG release: 14 days", "method": "as §1, with “USA). The release of sulphated glycosaminoglycan (sGAG) into the culture medium is monitored by a commercial colorimetric test according to a method described by S. Björnsson, see Anal. […] This is conducted in the presence or absence of IL-1β (100 pg/ml).” for “USA).”"}, "[2]": {"details": "absence of IL-1β, 10^−8 M, day 7"}, "[3]": {"details": "absence of IL-1β, 10^−8 M, day 14"}, "[4]": {"details": "absence of IL-1β, 10^−8 M, day 21"}, "[5]": {"details": "absence of IL-1β, 10^−8 M, day 28"}, "[6]": {"details": "absence of IL-1β, 10^−8 M, day 35"}, "[7]": {"details": "presence of 100 pg/ml IL-1β, 10^−7 M"}, "[8]": {"details": "presence of 100 pg/ml IL-1β, 10^−8 M"}, "[9]": {"details": "presence of 100 pg/ml IL-1β, 10^−8 M, day 7"}, "[10]": {"details": "presence of 100 pg/ml IL-1β, 10^−8 M, day 14"}, "[11]": {"details": "presence of 100 pg/ml IL-1β, 10^−8 M, day 21"}, "[12]": {"details": "presence of 100 pg/ml IL-1β, 10^−8 M, day 28"}, "[13]": {"details": "presence of 100 pg/ml IL-1β, 10^−8 M, day 35"}, "[14]": {"details": "presence of 100 pg/ml IL-1β, 10^−9 M"}}, "data": [{"smiles": "CC1=C(/C=C/C2=C(/C=C/C(C)=C/C(=O)O)CCCCC2)C(C)(C)CCC1", "note": "[Compound 1, (2E,4E)-3-methyl-5-[2-[(E)-2-(2,6,6-trimethyl-1-cyclohexen-1-yl)ethenyl]-1-cyclohepten-1-yl]-2,4-pentadienoic acid]", "values": [{"measurement": "Irritation or inflammation of the skin", "setting": "skin of mice", "value": "does not lead to irritation or inflammation of the skin"}]}, {"smiles": "CCCCOc1c(\\C(C)=C/C=C/C(C)=C/C(=O)O)cc(C(C)(C)C)cc1C(C)(C)C", "note": "[Compound 15, (2E,4E,6Z)-7-[2-butoxy-3,5-bis(1,1-dimethylethyl)phenyl]-3-methyl-2,4,6-octatrienoic acid]", "values": [{"measurement": "MPO activity (% vehicle treated mice)", "setting": "[1]; 9-cis RA 0.05% + test compound 0.05% topical", "value": "236 ± 92", "unit": "% vehicle treated mice"}, {"measurement": "MPO activity (% vehicle treated mice)", "setting": "[1]; TPA 0.005% + test compound 0.05% topical", "value": "163 ± 25", "unit": "% vehicle treated mice"}, {"measurement": "MPO activity (% vehicle treated mice)", "setting": "[1]; TPA 0.005% + test compound 2.5% topical", "value": "142 ± 18", "unit": "% vehicle treated mice"}, {"measurement": "Irritation or inflammation of the skin", "setting": "skin of mice", "value": "does not lead to irritation or inflammation of the skin"}, {"measurement": "MMP-1 mRNA, fold increase of baseline value", "setting": "MMP-1 mRNA; 10^−7 M, after 24 hours", "value": 0.68, "unit": "relative units"}, {"measurement": "MMP-1 mRNA, fold increase of baseline value", "setting": "MMP-1 mRNA; 10^−8 M, 0 hours", "value": 1, "unit": "relative units"}, {"measurement": "MMP-1 mRNA, fold increase of baseline value", "setting": "MMP-1 mRNA; 10^−8 M, 2 hours", "value": 1.13, "unit": "relative units"}, {"measurement": "MMP-1 mRNA, fold increase of baseline value", "setting": "MMP-1 mRNA; 10^−8 M, 6 hours", "value": 0.81, "unit": "relative units"}, {"measurement": "MMP-1 mRNA, fold increase of baseline value", "setting": "MMP-1 mRNA; 10^−8 M, 12 hours", "value": 1.12, "unit": "relative units"}, {"measurement": "MMP-1 mRNA, fold increase of baseline value", "setting": "MMP-1 mRNA; 10^−8 M, 24 hours", "value": 0.87, "unit": "relative units"}, {"measurement": "MMP-1 mRNA, fold increase of baseline value", "setting": "MMP-1 mRNA; 10^−8 M, 48 hours", "value": 0.83, "unit": "relative units"}, {"measurement": "MMP-1 mRNA, fold increase of baseline value", "setting": "MMP-1 mRNA; 10^−8 M, after 24 hours", "value": 1.12, "unit": "relative units"}, {"measurement": "MMP-1 mRNA, fold increase of baseline value", "setting": "MMP-1 mRNA; 10^−9 M, after 24 hours", "value": 1.05, "unit": "relative units"}, {"measurement": "Effect on cartilage destruction in vitro (in words)", "setting": "synovial fibroblasts; absence of IL-1β", "value": "no effect on the basal activity of synovial fibroblast"}, {"measurement": "sGAG release", "setting": "synovial fibroblasts; absence of IL-1β, 10^−7 M", "value": 39, "unit": "µg/mL"}, {"measurement": "sGAG release", "setting": "synovial fibroblasts; absence of IL-1β, 10^−8 M", "value": 57, "unit": "µg/mL"}, {"measurement": "Cumulative sGAG", "setting": "synovial fibroblasts; [2]", "value": 44, "unit": "µg/mL"}, {"measurement": "Cumulative sGAG", "setting": "synovial fibroblasts; [3]", "value": 57, "unit": "µg/mL"}, {"measurement": "Cumulative sGAG", "setting": "synovial fibroblasts; [4]", "value": 57, "unit": "µg/mL"}, {"measurement": "Cumulative sGAG", "setting": "synovial fibroblasts; [5]", "value": 39, "unit": "µg/mL"}, {"measurement": "Cumulative sGAG", "setting": "synovial fibroblasts; [6]", "value": 34, "unit": "µg/mL"}, {"measurement": "sGAG release", "setting": "synovial fibroblasts; absence of IL-1β, 10^−9 M", "value": 46, "unit": "µg/mL"}, {"measurement": "sGAG release", "setting": "synovial fibroblasts; [7]", "value": 41, "unit": "µg/mL"}, {"measurement": "sGAG release", "setting": "synovial fibroblasts; [8]", "value": 89, "unit": "µg/mL"}, {"measurement": "Cumulative sGAG", "setting": "synovial fibroblasts; [9]", "value": 67, "unit": "µg/mL"}, {"measurement": "Cumulative sGAG", "setting": "synovial fibroblasts; [10]", "value": 89, "unit": "µg/mL"}, {"measurement": "Cumulative sGAG", "setting": "synovial fibroblasts; [11]", "value": 89, "unit": "µg/mL"}, {"measurement": "Cumulative sGAG", "setting": "synovial fibroblasts; [12]", "value": 173, "unit": "µg/mL"}, {"measurement": "Cumulative sGAG", "setting": "synovial fibroblasts; [13]", "value": 56, "unit": "µg/mL"}, {"measurement": "sGAG release", "setting": "synovial fibroblasts; [14]", "value": 144, "unit": "µg/mL"}, {"measurement": "Effect on cartilage destruction in vitro (in words)", "setting": "synovial fibroblasts; presence of IL-1β", "value": "markedly inhibits the IL-1β dependent cartilage destruction"}]}, {"smiles": "CC1=C(/C=C/C(C)=C\\C=C\\C(C)=C\\C(=O)O)C(C)(C)CCC1", "note": "[9-cis RA, 9-cis retinoic acid, reference compound]", "values": [{"measurement": "MPO activity (% vehicle treated mice)", "setting": "[1]; 9-cis RA 0.05% alone, topical", "value": "647 ± 142", "unit": "% vehicle treated mice"}, {"measurement": "MMP-1 mRNA, fold increase of baseline value", "setting": "MMP-1 mRNA; 10^−7 M, after 24 hours", "value": 2.60, "unit": "relative units"}, {"measurement": "MMP-1 mRNA, fold increase of baseline value", "setting": "MMP-1 mRNA; 10^−8 M, 0 hours", "value": 1, "unit": "relative units"}, {"measurement": "MMP-1 mRNA, fold increase of baseline value", "setting": "MMP-1 mRNA; 10^−8 M, 2 hours", "value": 0.98, "unit": "relative units"}, {"measurement": "MMP-1 mRNA, fold increase of baseline value", "setting": "MMP-1 mRNA; 10^−8 M, 6 hours", "value": 1.31, "unit": "relative units"}, {"measurement": "MMP-1 mRNA, fold increase of baseline value", "setting": "MMP-1 mRNA; 10^−8 M, 12 hours", "value": 3.39, "unit": "relative units"}, {"measurement": "MMP-1 mRNA, fold increase of baseline value", "setting": "MMP-1 mRNA; 10^−8 M, 24 hours", "value": 3.79, "unit": "relative units"}, {"measurement": "MMP-1 mRNA, fold increase of baseline value", "setting": "MMP-1 mRNA; 10^−8 M, 48 hours", "value": 1.47, "unit": "relative units"}, {"measurement": "MMP-1 mRNA, fold increase of baseline value", "setting": "MMP-1 mRNA; 10^−8 M, after 24 hours", "value": 3.39, "unit": "relative units"}, {"measurement": "MMP-1 mRNA, fold increase of baseline value", "setting": "MMP-1 mRNA; 10^−9 M, after 24 hours", "value": 1.54, "unit": "relative units"}, {"measurement": "Effect on cartilage destruction in vitro (in words)", "setting": "synovial fibroblasts; absence of IL-1β", "value": "increases cartilage destruction in vitro in a dose-dependent manner"}, {"measurement": "sGAG release", "setting": "synovial fibroblasts; absence of IL-1β, 10^−7 M", "value": 189, "unit": "µg/mL"}, {"measurement": "sGAG release", "setting": "synovial fibroblasts; absence of IL-1β, 10^−8 M", "value": 107, "unit": "µg/mL"}, {"measurement": "Cumulative sGAG", "setting": "synovial fibroblasts; [2]", "value": 44, "unit": "µg/mL"}, {"measurement": "Cumulative sGAG", "setting": "synovial fibroblasts; [3]", "value": 107, "unit": "µg/mL"}, {"measurement": "Cumulative sGAG", "setting": "synovial fibroblasts; [4]", "value": 206, "unit": "µg/mL"}, {"measurement": "Cumulative sGAG", "setting": "synovial fibroblasts; [5]", "value": 253, "unit": "µg/mL"}, {"measurement": "Cumulative sGAG", "setting": "synovial fibroblasts; [6]", "value": 292, "unit": "µg/mL"}, {"measurement": "sGAG release", "setting": "synovial fibroblasts; absence of IL-1β, 10^−9 M", "value": 64, "unit": "µg/mL"}, {"measurement": "sGAG release", "setting": "synovial fibroblasts; [7]", "value": 221, "unit": "µg/mL"}, {"measurement": "sGAG release", "setting": "synovial fibroblasts; [8]", "value": 189, "unit": "µg/mL"}, {"measurement": "Cumulative sGAG", "setting": "synovial fibroblasts; [9]", "value": 68, "unit": "µg/mL"}, {"measurement": "Cumulative sGAG", "setting": "synovial fibroblasts; [10]", "value": 189, "unit": "µg/mL"}, {"measurement": "Cumulative sGAG", "setting": "synovial fibroblasts; [11]", "value": 330, "unit": "µg/mL"}, {"measurement": "Cumulative sGAG", "setting": "synovial fibroblasts; [12]", "value": 407, "unit": "µg/mL"}, {"measurement": "Cumulative sGAG", "setting": "synovial fibroblasts; [13]", "value": 441, "unit": "µg/mL"}, {"measurement": "sGAG release", "setting": "synovial fibroblasts; [14]", "value": 204, "unit": "µg/mL"}]}]}
